The subject of assay [1] is C. minutissimum ATCC 23348. The assay is described as follows: time kill assay, C. minutissimum. It counts as cell-based, Corynebacterium minutissimum. The protocol:
(§1) Corynebacterium minutissimum is the causative agent of erythrasma, a superficial infection of the skin characterized by slowly spreading pruritic, reddish-brown macular patches. A microbiological study used a time kill assay with C. minutissimum ATCC 23348 as an indicator of the antibacterial activity of proguanil. […] A broth only control as well as a solvent 10% DGME control were added to the vials so that the total test volume was 15 ml. One hundred μl of a freshly grown suspension of the C. minutissimum was then added at time zero so that the initial bacterial suspension was between 10^7 and 10^8 CFU/ml. All test and control suspensions were then incubated under aerobic conditions at 35° C. Aliquots of the test and control suspensions were removed at 24, 48, and 72 hours and plated onto tryptic soy agar in triplicate using a spiral plater. These plates were incubated aerobically at 35° C. for 1-3 days. Surviving colonies were then counted and the CFU/ml of test and control suspensions calculated and graphed. The effects of proguanil on the C. minutissimum were observed.

Assay [2] relates to Streptococcus equi subsp. equi ATCC 33398. The assay is described as follows: time kill assay, S. equi (Group C). Format: cell-based. The protocol: Streptococcus equi (Group C) infections can lead to skin diseases such as erysipelas and cellulitis. A time kill assay was used to test the effects of varying concentrations of proguanil on a culture of Streptococcus equi subsp. equi ATCC 33398. An inoculum of S. equi was prepared and inoculated in vials containing Mueller Hinton II broth and proguanil concentrations of 160, 80, 16, 8, and 1.6 μg/ml. A growth control using phosphate buffered saline A (PBSA) plus Mueller Hinton II broth was used in place of the drug because it has no antimicrobial effect. DGME was the solvent used to dissolve the proguanil, accordingly, 10% DGME was used as the solvent control. These inoculated broth solutions were then allowed to incubate for a period of 72 hours. Samples were taken at 0, 4, 24, 48 and 72 hours and spiral plated so the CFU/ml could be calculated. In the experiments, the effects of proguanil on the S. equi were observed.

The subject of the next assay is S. pyogenes ATCC 19615. The assay is described as follows: time kill assay, S. pyogenes (Group A). It counts as cell-based, Streptococcus pyogenes. The protocol: as §1, with “Streptococcus pyogenes (Group A) infections can lead to many skin disease syndromes. Impetigo, ecthyma, erysipelas, and cellulitis are all diseases caused by an” for “Corynebacterium minutissimum is the causative agent of erythrasma, a superficial”, “S. pyogenes.” for “the skin characterized by slowly spreading pruritic, reddish-brown macular patches.”, “S. pyogenes” for “C. minutissimum”, “19615” for “23348”

`CC(C)NC(=N)NC(=N)Nc1ccc(Cl)cc1` [Proguanil, N-(4-Chlorophenyl)-N′-(1-methylethyl)imidodicarbonimidic diamide]: the “effect on CFU/ml” value in assay [1] (160 and 80 μg/ml, at 4 hours, 160 greater effect than 80) was “reduced the CFU/ml”; in assay [2] (80 μg/ml, time zero to 72 hours), “only a slight increase in CFU/ml”; in assay [2] (all other concentrations (16, 8, 1.6 μg/ml)), “very similar and near the CFU/ml of the Mueller Hinton II broth control”. The CFU/ml in assay [1] (160 and 80 μg/ml, by the 24 hour time point) was 0 CFU/ml; in assay [2] (160 μg/ml, T=48 and 72 hours) it was 0 CFU/ml; with S. pyogenes ATCC 19615 (160 μg/ml, T=24, 48 and 72 hours) it was 0 CFU/ml. Moreover, the figures for the “Relative Sensitivity (Compared to Other Strains Tested)” value (in assay [1] (Corynebacterium minutissimum (ATCC 23348)); in assay [2] (Streptococcus equi subspecies equi (Group C) ATCC 33398); in the assay with S. pyogenes ATCC 19615 (Streptococcus pyrogenes (Group A) ATCC 19615)) were “Very Sensitive”, “Sensitive” and “Sensitive”, respectively. The “Approximate Inhibitory Level” value is 80 µg/mL in assay [1] (Corynebacterium minutissimum (ATCC 23348), level at which partial or total inhibition of growth is observed); 80 to 160 µg/mL in assay [2] (Streptococcus equi subspecies equi (Group C) ATCC 33398, level at which partial or total inhibition of growth is observed); 80 to 160 µg/mL in the assay with S. pyogenes ATCC 19615 (Streptococcus pyrogenes (Group A) ATCC 19615, level at which partial or total inhibition of growth is observed). Besides, the “effect compared to controls” value in assay [1] (all other test concentrations (1.6, 8, 16 μg/ml)) was “little effect”. In addition, the “effect on the bacteria” value in assay [2] (160 μg/ml) was “strong inhibition and killing”; in the assay with S. pyogenes ATCC 19615 (1.6 μg/ml) it was “roughly followed the trend of the Mueller Hinton II broth control”; in the assay on S. pyogenes ATCC 19615 (8 μg/ml and 16 μg/ml, compared to Mueller Hinton II control), “may be slightly inhibitory”; with S. pyogenes ATCC 19615 (80 μg/ml, lesser effect than 160 and 100 μg/ml), “good growth inhibition”; in the assay on S. pyogenes ATCC 19615 (100 μg/ml, over 72 hours, single assay) it was “substantial effect”; in the assay on S. pyogenes ATCC 19615 (160 μg/ml, lowest CFU/ml at all time points) it was “greatest effect”.
